According to patent publication US5110904A (Abbott Laboratories, priority 1990, dated 1992):
Starred links: 1 amine or outer side, 2 acyl side, 3 side chain; linkers in the order of their positions; H or OH if unused. Non-standard residues stand in square brackets, D forms with d. Residues, ends and D or L forms follow the SMILES beside them. Groups on a side chain read outwards from the residue. *: point of attachment. dPhe(4-Cl) = N[C@H](Cc1ccc(Cl)cc1)C(=O)O; d1Nal = N[C@H](Cc1cccc2ccccc12)C(=O)O; d2Nal = N[C@H](Cc1ccc2ccccc2c1)C(=O)O; dLys(iPr) = CC(C)NCCCC[C@@H](N)C(=O)O; d(hCit) = NC(=O)NCCCC[C@@H](N)C(=O)O; Lys(iPr) = CC(C)NCCCC[C@H](N)C(=O)O; NMeY = CN[C@@H](Cc1ccc(O)cc1)C(=O)O; dBta = N[C@H](Cc1csc2ccccc12)C(=O)O; Piperazinyl(4-Me) = CN1CCN(*)CC1; d3Pal = N[C@H](Cc1cccnc1)C(=O)O; Cha = N[C@@H](CC1CCCCC1)C(=O)O; d2Thi = N[C@H](Cc1cccs1)C(=O)O; NMeL = CN[C@@H](CC(C)C)C(=O)O; Nicotinoyl = O=C(c1cccnc1)*; NMeS = CN[C@@H](CO)C(=O)O; CO = O=C([*:1])[*:2]; Sar = CNCC(=O)O

How the values were obtained:
LHRH receptors = target: T1, LHRH receptors (Rattus norvegicus, UniProt P30969); test: Radioligand receptor binding assay, rat pituitary membranes; details: radioiodinated [D-Leu6-des Gly10]-LHRH ethyl amide 50 pM, 2 hours at 4° C., read-out: Receptor Binding pkI (converted)
T1 sequence (P30969 1-327): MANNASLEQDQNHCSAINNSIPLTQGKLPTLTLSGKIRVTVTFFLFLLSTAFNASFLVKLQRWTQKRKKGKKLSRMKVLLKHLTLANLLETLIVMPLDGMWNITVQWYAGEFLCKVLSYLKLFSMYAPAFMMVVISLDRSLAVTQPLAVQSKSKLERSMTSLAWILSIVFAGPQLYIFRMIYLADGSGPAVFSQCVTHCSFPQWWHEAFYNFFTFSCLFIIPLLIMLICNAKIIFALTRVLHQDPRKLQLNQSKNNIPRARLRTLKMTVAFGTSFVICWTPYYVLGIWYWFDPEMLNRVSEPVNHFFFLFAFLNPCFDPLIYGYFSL
Protocol: The radioligand (50 pM), receptors, and compounds to be tested are coincubated for 2 hours at 4° C. Bound ligand is separated from free ligand via centrifugation and aspiration.

[1] = system: LH concentration in the blood; test: In vivo LH inhibition in male castrate rats; set-up: species or system rat; details: AUC of log(LHt/LHi) over 24 hours, 30 ug/kg subcutaneous bolus
Protocol: The compound to be tested is administered at 30 μg/kg subcutaneously by bolus injection to male castrate rats and blood samples are collected periodically over 24 hours. The AUC (area under the curve) of the LH supression data as a function of time is calculated using the formula log (LHt /LHi) wherein LHt is the LH concentration in the blood at time t and LHi is the initial baseline value for the concentration of LH in the blood. The AUC values are negative numbers.

Row | SMILES | Ki (LHRH receptors) [nM] | AUC (24 hr. after 30 ug/kg) [1]
1 | CC(=O)N[C@H](Cc1ccc2ccccc2c1)C(=O)N[C@H](Cc1ccc(Cl)cc1)C(=O)N[C@H](Cc1cccnc1)C(=O)N(C)[C@@H](CO)C(=O)N[C@@H](CCCCNC(=O)c1cccnc1)C(=O)N[C@H](CCCCNC(=O)c1cccnc1)C(=O)N[C@@H](CC(C)C)C(=O)N[C@@H](CCCCNC(C)C)C(=O)N1CCC[C@H]1C(=O)N[C@H](C)C(N)=O [Ex. 35, N-Ac-D-2-Nal-D-4-Cl-Phe-D-3-Pal-N-Me-Ser-Lys-(N-epsilon-nicotinyl)-D-Lys-(N-epsilon-nicotinyl)-Leu-Lys-(N-epsilon-isopropyl)-Pro-D-AlaNH2] (Ac-[d2Nal][dPhe(4-Cl)][d3Pal][NMeS]K(Nicotinoyl)[dK](Nicotinoyl)L[Lys(iPr)]P[dA]-NH2) | 0.479 | -510
2 | CC(=O)N[C@H](Cc1ccc2ccccc2c1)C(=O)N[C@H](Cc1ccc(Cl)cc1)C(=O)N[C@H](Cc1cccnc1)C(=O)N[C@@H](CO)C(=O)N(C)[C@@H](Cc1ccc(O)cc1)C(=O)N[C@H](CCCCNC(=O)c1cccnc1)C(=O)N[C@@H](CC(C)C)C(=O)N[C@@H](CCCCNC(C)C)C(=O)N1CCC[C@H]1C(=O)N[C@H](C)C(N)=O [Ex. 38, N-Ac-D-2-Nal-D-4-Cl-Phe-D-3-Pal-Ser-N-Me-Tyr-D-Lys(N-epsilon-nicotinyl)-Leu-Lys(N-epsilon-isopropyl)-Pro-D-AlaNH2] (Ac-[d2Nal][dPhe(4-Cl)][d3Pal]S[NMeY][dK](Nicotinoyl)L[Lys(iPr)]P[dA]-NH2) | 0.0316 | -1000
3 | CC(=O)N[C@H](Cc1ccc(Cl)cc1)C(=O)N[C@H](Cc1ccc(Cl)cc1)C(=O)N[C@H](Cc1cccc2ccccc12)C(=O)N[C@@H](CO)C(=O)N(C)[C@@H](Cc1ccc(O)cc1)C(=O)N[C@H](CCCCN)C(=O)N[C@@H](CC(C)C)C(=O)N[C@@H](CCCNC(=N)N)C(=O)N1CCC[C@H]1C(=O)N[C@H](C)C(N)=O [Ex. 46, N-Ac-D-4-Cl-Phe-D-4-Cl-Phe-D-1-Nal-Ser-N-Me-Tyr-D-Lys-Leu-Arg-Pro-D-AlaNH2] (Ac-[dPhe(4-Cl)][dPhe(4-Cl)][d1Nal]S[NMeY][dK]LRP[dA]-NH2) |  | -1513
4 | CC(=O)N[C@H](Cc1ccc(Cl)cc1)C(=O)N[C@H](Cc1ccc(Cl)cc1)C(=O)N[C@H](Cc1cccs1)C(=O)N[C@@H](CO)C(=O)N[C@@H](Cc1ccc(O)cc1)C(=O)N[C@H](CCCCN)C(=O)N[C@@H](CC(C)C)C(=O)N[C@@H](CCCNC(=N)N)C(=O)N1CCC[C@H]1C(=O)N(C)CC(N)=O [Ex. 58, N-Ac-D-4-Cl-Phe-D-4-Cl-Phe-D-2-Thia-Ser-Tyr-D-Lys-Leu-Arg-Pro-SarNH2] (Ac-[dPhe(4-Cl)][dPhe(4-Cl)][d2Thi]SY[dK]LRP[Sar]-NH2) | 0.00871 | 
5 | CC(=O)N[C@H](Cc1ccc(Cl)cc1)C(=O)N[C@H](Cc1ccc(Cl)cc1)C(=O)N[C@H](Cc1cccc2ccccc12)C(=O)N[C@@H](CO)C(=O)N(C)[C@@H](Cc1ccc(O)cc1)C(=O)N[C@H](CCCCNC(N)=O)C(=O)N[C@@H](CC(C)C)C(=O)N[C@@H](CCCNC(=N)N)C(=O)N1CCC[C@H]1C(=O)N[C@H](C)C(N)=O [Ex. 59, N-Ac-D-4-Cl-Phe-D-4-Cl-Phe-D-1-Nal-Ser-N-Me-Tyr-D-H-Cit-Leu-Arg-Pro-D-AlaNH2] (Ac-[dPhe(4-Cl)][dPhe(4-Cl)][d1Nal]S[NMeY][d(hCit)]LRP[dA]-NH2) | 0.0977 | 
6 | CC(=O)N[C@H](Cc1ccc(Cl)cc1)C(=O)N[C@H](Cc1ccc(Cl)cc1)C(=O)N[C@H](Cc1csc2ccccc12)C(=O)N[C@@H](CO)C(=O)N(C)[C@@H](Cc1ccc(O)cc1)C(=O)N[C@H](CCCCNC(C)C)C(=O)N[C@@H](CC(C)C)C(=O)N[C@@H](CCCNC(=N)N)C(=O)N1CCC[C@H]1C(=O)N[C@H](C)C(N)=O [Ex. 60, N-Ac-D-4-Cl-Phe-D-4-Cl-Phe-D-3-Bal-Ser-N-Tyr-D-Lys(N-epsilon-isopropyl)-Leu-Arg-Pro-D-AlaNH2] (Ac-[dPhe(4-Cl)][dPhe(4-Cl)][dBta]S[NMeY][dLys(iPr)]LRP[dA]-NH2) | 0.0229 | 
7 | CC(=O)N[C@H](Cc1ccc2ccccc2c1)C(=O)N[C@H](Cc1ccc(Cl)cc1)C(=O)N[C@H](Cc1cccnc1)C(=O)N[C@@H](CO)C(=O)N(C)[C@@H](Cc1ccc(O)cc1)C(=O)N[C@H](Cc1cccnc1)C(=O)N[C@@H](CC(C)C)C(=O)N[C@@H](CCCCNC(C)C)C(=O)N1CCC[C@H]1C(=O)N[C@H](C)C(N)=O [Ex. 61, N-Ac-D-2-Nal-D-4-Cl-Phe-D-3-Pal-Ser-N-Me-Tyr-D-3-Pal-Leu-Lys(N-epsilon-isopropyl)-Pro-D-AlaNH2] (Ac-[d2Nal][dPhe(4-Cl)][d3Pal]S[NMeY][d3Pal]L[Lys(iPr)]P[dA]-NH2) | 0.049 | 
8 | CC(=O)N(C)CC(=O)N[C@H](Cc1ccc(Cl)cc1)C(=O)N[C@H](Cc1csc2ccccc12)C(=O)N[C@@H](CO)C(=O)N(C)[C@@H](Cc1ccc(O)cc1)C(=O)N[C@H](CCCCNC(=O)c1cccnc1)C(=O)N[C@@H](CC(C)C)C(=O)N[C@@H](CCCCNC(C)C)C(=O)N1CCC[C@H]1C(=O)N[C@H](C)C(N)=O [Ex. 64, N-Ac-Sar-D-4-Cl-Phe-D-3-Bal-Ser-N-Me-Tyr-D-Lys(N-epsilon-nicotinyl)-Leu-Lys(N-epsilon-isopropyl)-Pro-D-Ala-NH2] (Ac-[Sar][dPhe(4-Cl)][dBta]S[NMeY][dK](Nicotinoyl)L[Lys(iPr)]P[dA]-NH2) | 0.0102 | 
9 | CC(=O)N[C@H](Cc1ccc2ccccc2c1)C(=O)N[C@H](Cc1ccc(Cl)cc1)C(=O)N[C@H](Cc1cccnc1)C(=O)N[C@@H](CO)C(=O)N(C)[C@@H](Cc1ccc(O)cc1)C(=O)N[C@H](CCCCNC(=O)c1cccnc1)C(=O)N[C@@H](CC1CCCCC1)C(=O)N[C@@H](CCCNC(=N)N)C(=O)N1CCC[C@H]1C(=O)N[C@H](C)C(N)=O [Ex. 66, N-Ac-D-2-Nal-D-4-Cl-Phe-D-3-Pal-Ser-N-Me-Tyr-D-Lys(N-epsilon-nicotinyl)-Cha-Arg-Pro-D-AlaNH2] (Ac-[d2Nal][dPhe(4-Cl)][d3Pal]S[NMeY][dK](Nicotinoyl)[Cha]RP[dA]-NH2) | 0.0141 | 
10 | CC(=O)N[C@H](Cc1ccc(Cl)cc1)C(=O)N[C@H](Cc1ccc(Cl)cc1)C(=O)N[C@H](Cc1cccs1)C(=O)N[C@@H](CO)C(=O)N(C)[C@@H](Cc1ccc(O)cc1)C(=O)N[C@H](CCCCNC(=O)c1cccnc1)C(=O)N(C)[C@@H](CC(C)C)C(=O)N[C@@H](CCCNC(=N)N)C(=O)N1CCC[C@H]1C(=O)N[C@H](C)C(N)=O [Ex. 68, N-Ac-D-4-Cl-Phe-D-4-Cl-Phe-D-2-Thia-Ser-N-Me-Tyr-D-Lys(N-epsilon-nicotinyl)-N-Me-Leu-Arg-Pro-D-Ala-NH2] (Ac-[dPhe(4-Cl)][dPhe(4-Cl)][d2Thi]S[NMeY][dK](Nicotinoyl)[NMeL]RP[dA]-NH2) | 0.12 | 
11 | CC(=O)N[C@H](Cc1ccc2ccccc2c1)C(=O)N[C@H](Cc1ccc(Cl)cc1)C(=O)N[C@H](Cc1cccnc1)C(=O)N[C@@H](CO)C(=O)N(C)[C@@H](Cc1ccc(O)cc1)C(=O)N[C@H](CCCCNC(=O)N1CCN(C)CC1)C(=O)N[C@@H](CC(C)C)C(=O)N[C@@H](CCCCNC(C)C)C(=O)N1CCC[C@H]1C(=O)N[C@H](C)C(N)=O [Ex. 70, N-Ac-D-2--Nal-D-4-Cl-Phe-D-3-Pal-Ser-N-Me-Tyr-D-Lys(N-epsilon-CO-NMePip)-Leu-Lys(N-epsilon-isopropyl)-Pro-D-AlaNH2] (Ac-[d2Nal][dPhe(4-Cl)][d3Pal]S[NMeY][dK]([CO-Piperazinyl(4-Me)])L[Lys(iPr)]P[dA]-NH2) | 0.012 | 
